# Measured values reported in patent US10426775B2, “Methods for treating Friedreich's ataxia with etravirine” (Fratagene Therapeutics srl, priority 2017, dated 2019).
# Columns and labels:
# Type in all cases: cell-based, human
# [1] = test system: newly synthesized frataxin mRNA; test: Nascent frataxin transcripts (EU metabolic labeling, Click-iT capture, real-time PCR) in HEK293-fxn; settings: 10 μM, 4 or 8 hours
# Source text: We then investigated whether the observed increase in frataxin protein levels is due to an upregulation of the frataxin mRNA, either promoted by an increase in the […] rate of frataxin mRNA or by its stabilization. To understand whether etravirine promotes de novo synthesis of frataxin mRNA, we metabolically labeled nascent transcripts through the incorporation of 5-ethynyl uridine (EU). Through a click chemistry-based reaction, biotin was then conjugated to EU-labelled transcripts, thus allowing selective isolation and analysis of newly synthesized mRNA. We therefore quantitatively analyzed the relative amount of newly synthesized frataxin mRNA in etravirine-treated HEK293-fxn cells, compared to untreated control cells. […] We then analyzed the effect of etravirine on the decay of frataxin transcript observed upon treatment with actinomycin. HEK293-fxn cells were treated with actinomycin for 4, 8 or 12 hours in the presence or absence of etravirine and frataxin mRNA was quantitated by RT-PCR.
# HEK 293-fxn stably expressing frataxin (A), HEK 293 (B), or FRDA lymphoblast cell line GM16203 (C) were treated with 10 μM etravirine for the indicated time points. Protein extracts were resolved on SDS-PAGE and analyzed by western blot with anti-frataxin antibody and anti-tubulin as a loading control. Etr: etravirine; tub: tubulin; fxn pre: frataxin precursor. […]
# frataxin-deficient cells = test: Toxic effect and cell viability of etravirine-treated frataxin-deficient cells; settings: any of the tested doses
# mature frataxin = test: Western blot of frataxin in primary fibroblasts derived from FRDA patients; settings: 300 nM etravirine, 24 hours
# Description: Lymphoblastoid cell lines from one healthy subject [GM16215] and 7 FRDA patients [GM16228, GM16203, GM16214, GM16223, GM16210, GM16205, GM16216], and primary fibroblasts from 2 FRDA patients [GM02816 and GM04078], were obtained from NIGMS Human Genetic Cell Repository, Coriell Institute for Medical Research (Camden, N.J., USA). Lymphoblasts and fibroblasts were grown at 37° C. and 5% CO2 and were respectively cultured in RPMI or DMEM, supplemented with 15% FBS, […] penicillin/streptomycin and 2 mM L-glutamine.
# For the validation steps, etravirine (TMC125) was purchased from Selleckchem and was dissolved in DMSO at a stock concentration of 10 mM. […]
# Total cell extracts were prepared in lysis buffer (50 mM Tris-HCl, pH 7.5, 150 mM NaCl, 1% Igepal CA-630, 5 mM EDTA, 5 mM EGTA) supplemented with complete protease inhibitor cocktail (Roche Diagnostics, Indianapolis, Ind., USA). […] The immunoreactive bands were detected by ECL (GE Healthcare, Chalfont St. Giles, UK) and imaged with a ChemiDoc XRS system (Bio-Rad). […] All values are expressed as means±1 S.E.M.
# We chose the minimal effective dose (300 nM) to evaluate the efficacy of etravirine over a broad range of cells derived from FRDA patients. In particular, we analysed 7 lymphoblastoid cell lines derived from FRDA patients and primary fibroblasts derived from two different FRDA patients. […]
smiles,measurement,setting,value
Cc1cc(C#N)cc(C)c1Oc1nc(Nc2ccc(C#N)cc2)nc(N)c1Br [etravirine],relative amount of newly synthesized frataxin mRNA vs untreated control cells,[1],did not observe any difference
same,toxic effect on frataxin-deficient cells,frataxin-deficient cells,does not show any toxic effect
same,cell viability,frataxin-deficient cells; frataxin-deficient cells,does not affect cell viability
same,average fold increase in mature frataxin levels,mature frataxin; GM03816 fibroblasts (380 GAA repeats),1.65 fold
same,average fold increase in mature frataxin levels,mature frataxin; GM04078 fibroblasts (541 GAA repeats),1.71 fold
